This is an account of results in patent US20040180958A1, “Method of treatment” (priority 2002, published 2004).

As usually defined, the melting point is the temperature of the solid-liquid transition.

Data set [1] has as its system micturition reflex of anaesthetised rats. Kind of data set: Continuous cystometry: effects of an alpha-2-delta ligand on the micturition reflex of anaesthetised rats. The format is in vivo, rat. How it is done:
Investigation into the Effects of an Alpha-2-delta Ligand on the Micturition Reflex of Anaesthetised Rats
Four caesarean derived (CD) rats weighing approximately 225 g were anaesthetised using urethane and continuous cystometry performed.
The animals were anaesthetised using urethane (1.2 g/kg, i.p.). Depth of anaesthesia was assessed by the stability of blood pressure and heart rate, and by an absence of hind limb withdrawal in response to paw pinch. Supplementary doses of urethane ([…], i.v.) were given where necessary.
The trachea was intubated to maintain a patent airway, an external jugular vein was cannulated for drug administration, and a common carotid artery was cannulated with a heparinised cannula (20 units/ml heparin in 0.9% w/v saline) for the measurement of arterial blood pressure.
Blood pressure was measured using a pressure transducer and the heart rate (HR) derived electronically on-line from the blood pressure using PoneMah (Linton Pty Ltd UK). Body temperature was monitored with a rectal temperature probe and maintained between 36-38° C. using a homeothermic blanket system (Harvard, UK). Animals were allowed to breathe air spontaneously throughout the duration of the experiment.
The urinary bladder was exposed by a midline abdominal incision. A cannula (c. 0.52 mm internal and 1.2 mm external diameter) was inserted into the bladder dome as a means of infusing the bladder while simultaneously recording intravesical bladder pressure. The bladder was infused with physiological saline (0.9%) at the rate of 0.046 ml/min, to simulate the maximal hourly diuresis rate of the rat (Klevmark B [1974]—Motility of the urinary bladder in cats during filling at physiological rates. I. Intravesical pressure patterns studied by a new method of cystometry. Acta Physiol Scand 90(3): 565-77).
Following the surgical procedure the animals were allowed to stabilise for c. 30 min. After the stabilisation period, cystometry was performed and bladder function (interval between micturition) in response to Gabapentin-HCl (0.3, 1, 3 and 10 mg/kg administered intravenously) was monitored.
Differences between treatment groups were examined using ANOVA.
Gabapentin-HCl (Tocris, UK) was dissolved in saline.

Data set [2] relates to male spontaneously hypertensive rat (SHR). Kind of data set: Micturition frequency and bladder pressure by telemetry in the male spontaneously hypertensive rat (SHR). Type of data set: in vivo. As to conditions: 60 mg/kg s/c. The protocol:
Effect of an Alpha-2-delta Ligand on Micturition Frequency and Bladder Pressure in the Male Spontaneously Hypertensive Rat (SHR)
Eight (8) male spontaneously hypertensive rats were prepared surgically with Data Sciences International (DSI) telemetry transponders (TL11M2-C50-PXT). Bladder pressure was continuously monitored with the aid of a pressure catheter placed via the dome of the bladder.
Bladder parameters (bladder pressure, voiding pressure and the number of voids) were recorded in response to placebo or treatment with 60 mg/kg Gabapentin administered subcutaneously (s/c).

As for `CCC[C@@H](C)C[C@H](N)CC(=O)O.Cl`, the melting point fell in the range of 142.5 to 142.7 °C.
Still for that read-out and setting: the same measure for `CCCC[C@@H](C)C[C@H](N)CC(=O)O.Cl`: 142.5 to 143.3 °C.
With `NCC1(CC(=O)O)CCCCC1` [gabapentin, 1-(aminomethyl)-cyclohexylacetic acid], the micturition interval in data set [1] (10 mg/kg intravenously, control 3.1±0.29 min, P<0.05) is 9.89 ± 2.72 min; in data set [2] (P<0.05, FIG. 2) it was “significantly decreased”. Besides, in data set [1] (10 mg/kg, anaesthetised rats), the “adverse effects on micturition efficiency, urine retention or bladder contraction upon voiding” value was “did not have any adverse effects”. In addition, in data set [1] (anaesthetised rats, intravenous, as a consequence of the longer micturition interval), the bladder capacity improved was found to be 200%. For the same compound, in data set [1] (urethane-anaesthetised CD rats, 0.3, 1, 3 and 10 mg/kg intravenously, relative to control periods), the “interval between voiding events” value is “significantly extended the interval between voiding events in a dose dependent manner”. Further, in data set [2] (FIG. 2), the bladder capacity result is reported as “increased bladder capacity”. The “average bladder pressure during the filling stages of the micturition cycle” value in data set [2] (P<0.05 relative to control periods, FIG. 3) is reported as “significantly decreased”.
